# Active and inactive are the calls of the source. The calls are words filed in the database; no cut-off is given here.
# How the values were obtained:
# [1] = system: Staphylococcus aureus; assay: Antibacterial activity against Staphylococcus aureus ATCC 25923 after 18 hrs in presence of NaCl by CLSI based broth microdilution method (reference value: 128 microM); type: functional; conditions: ATCC 25923, 18 h
# [2] = system: DNA; assay: Binding affinity to Escherichia coli ATCC 25922 genomic DNA at 0.5 x MIC after 30 mins by agarose gel electrophoresis; type: nucleic-acid assay
# [3] = system: Staphylococcus aureus; assay: Antibacterial activity against Staphylococcus aureus ATCC 25923 after 18 hrs in presence of FeCl3 by CLSI based broth microdilution method (reference value: 128 microM); type: functional; conditions: ATCC 25923, 18 h
# [4] = system: Staphylococcus aureus; assay: Antibacterial activity against Staphylococcus aureus ATCC 25923 after 18 hrs in presence of MgCl2 by CLSI based broth microdilution method (reference value: 128 microM); type: functional; conditions: ATCC 25923, 18 h
# [5] = system: Staphylococcus aureus; assay: Antibacterial activity against Staphylococcus aureus ATCC 25923 after 18 hrs in presence of FeCl3 by CLSI based broth microdilution method (reference value: 4 microM); type: functional; conditions: ATCC 25923, 18 h
# [6] = system: Staphylococcus aureus; assay: Antibacterial activity against Staphylococcus aureus ATCC 25923 after 18 hrs in presence of KCl by CLSI based broth microdilution method (reference value: 4 microM); type: functional; conditions: ATCC 25923, 18 h
# [7] = system: Staphylococcus aureus; assay: Antibacterial activity against Staphylococcus aureus ATCC 25923 after 18 hrs in presence of MgCl2 by CLSI based broth microdilution method (reference value: 4 microM); type: functional; conditions: ATCC 25923, 18 h
# [8] = Cytotoxicity against mouse RAW264.7 cells assessed as cell proliferation at 8 uM after 1 hr by MTT assay relative to control; type: cell-based; conditions: read-out: Activity
# [9] = system: Staphylococcus aureus; assay: Antibacterial activity against Staphylococcus aureus ATCC 25923 after 18 hrs in presence of NaCl by CLSI based broth microdilution method (reference value: 4 microM); type: functional; conditions: ATCC 25923, 18 h
# [10] = system: DNA; assay: Binding affinity to Escherichia coli ATCC 25922 genomic DNA at 4 x MIC after 30 mins by agarose gel electrophoresis; type: nucleic-acid assay
# [11] = system: Escherichia coli; assay: Antibacterial activity against Escherichia coli ATCC 25922 after 18 hrs in presence of KCl by CLSI based broth microdilution method (reference value: 64 microM); type: functional; conditions: ATCC 25922, 18 h
# [12] = system: Staphylococcus aureus; assay: Antibacterial activity against Staphylococcus aureus ATCC 25923 after 18 hrs in presence of NaCl by CLSI based broth microdilution method (reference value: 32 microM); type: functional; conditions: ATCC 25923, 18 h
# [13] = system: Escherichia coli; assay: Antibacterial activity against Escherichia coli ATCC 25922 after 18 hrs in presence of NaCl by CLSI based broth microdilution method (reference value: 64 microM); type: functional; conditions: ATCC 25922, 18 h
# [14] = system: Staphylococcus aureus; assay: Antibacterial activity against Staphylococcus aureus ATCC 25923 after 18 hrs in presence of KCl by CLSI based broth microdilution method (reference value: 32 microM); type: functional; conditions: ATCC 25923, 18 h
# [15] = system: Escherichia coli; assay: Antimicrobial activity against Escherichia coli ATCC 25922 preincubated for 1 hr in presence of 10% mouse serum and measured after 18 hrs by CLSI-based broth microdilution assay (reference value: 64 microM); type: functional
# [16] = system: Escherichia coli; assay: Antimicrobial activity against Escherichia coli ATCC 25922 at 1 mM preincubated for 6 hrs in presence of 200 ug/ml chymotrypsin and measured after 18 hrs by microplate reader analysis; type: functional, organism-based
# [17] = system: Staphylococcus aureus; assay: Antibacterial activity against Staphylococcus aureus ATCC 25923 after 18 hrs in presence of MgCl2 by CLSI based broth microdilution method (reference value: 32 microM); type: functional; conditions: ATCC 25923, 18 h
# [18] = system: Escherichia coli; assay: Antibacterial activity against Escherichia coli ATCC 25922 after 18 hrs in presence of FeCl3 by CLSI based broth microdilution method (reference value: 64 microM); type: functional; conditions: ATCC 25922, 18 h
# [19] = system: DNA; assay: Binding affinity to Escherichia coli ATCC 25922 genomic DNA at 1 x MIC after 30 mins by agarose gel electrophoresis; type: nucleic-acid assay
# [20] = system: Escherichia coli; assay: Antimicrobial activity against Escherichia coli ATCC 25922 at 1 mM preincubated for 6 hrs in presence of 2000 ug/ml chymotrypsin and measured after 18 hrs by microplate reader analysis; type: functional, organism-based
# [21] = system: Pseudomonas aeruginosa; assay: Antibiofilm activity against Pseudomonas aeruginosa ATCC 27853 at 2 times of MIC after 24 hrs by crystal violet staining based assay; type: functional, organism-based
# [22] = system: Escherichia coli; assay: Antibacterial activity against Escherichia coli ATCC 25922 after 18 hrs in presence of KCl by CLSI based broth microdilution method (reference value: 4 microM); type: functional; conditions: ATCC 25922, 18 h
# [23] = system: Staphylococcus aureus; assay: Antibacterial activity against Staphylococcus aureus ATCC 25923 after 18 hrs in presence of NaCl by CLSI based broth microdilution method (reference value: 16 microM); type: functional; conditions: ATCC 25923, 18 h
# [24] = system: Escherichia coli; assay: Antibacterial activity against Escherichia coli ATCC 25922 after 18 hrs in presence of FeCl3 by CLSI based broth microdilution method (reference value: 4 microM); type: functional; conditions: ATCC 25922, 18 h
# [25] = system: Escherichia coli; assay: Antimicrobial activity against Escherichia coli ATCC 25922 preincubated for 1 hr in presence of 10% mouse serum and measured after 18 hrs by CLSI-based broth microdilution assay (reference value: 4 microM); type: functional
# [26] = system: Staphylococcus aureus; assay: Antibacterial activity against Staphylococcus aureus ATCC 25923 after 18 hrs in presence of KCl by CLSI based broth microdilution method (reference value: 16 microM); type: functional; conditions: ATCC 25923, 18 h
# [27] = system: Staphylococcus aureus; assay: Antibacterial activity against Staphylococcus aureus ATCC 25923 after 18 hrs in presence of MgCl2 by CLSI based broth microdilution method (reference value: 16 microM); type: functional; conditions: ATCC 25923, 18 h
# [28] = system: RAW264.7; assay: Cytotoxicity against mouse RAW264.7 cells assessed as cell proliferation at 16 uM after 1 hr by MTT assay; type: cell-based; conditions: raw264.7, 1 h
# [29] = system: Escherichia coli; assay: Antibacterial activity against Escherichia coli ATCC 25922 after 18 hrs in presence of MgCl2 by CLSI based broth microdilution method (reference value: 4 microM); type: functional; conditions: ATCC 25922, 18 h
# [30] = system: Escherichia coli; assay: Antibacterial activity against Escherichia coli ATCC 25922 after 18 hrs in presence of NaCl by CLSI based broth microdilution method (reference value: 4 microM); type: functional; conditions: ATCC 25922, 18 h
# [31] = system: Staphylococcus aureus; assay: Antibacterial activity against Staphylococcus aureus ATCC 25923 after 18 hrs in presence of FeCl3 by CLSI based broth microdilution method (reference value: 16 microM); type: functional; conditions: ATCC 25923, 18 h
# [32] = system: Escherichia coli; assay: Antimicrobial activity against Escherichia coli ATCC 25922 at 1 mM preincubated for 6 hrs in presence of 20 ug/ml chymotrypsin and measured after 18 hrs by microplate reader analysis; type: functional, organism-based
# [33] = system: Staphylococcus aureus; assay: Antibacterial activity against Staphylococcus aureus ATCC 25923 after 18 hrs in presence of MgCl2 by CLSI based broth microdilution method (reference value: 64 microM); type: functional; conditions: ATCC 25923, 18 h
# [34] = system: Staphylococcus aureus; assay: Antibacterial activity against Staphylococcus aureus ATCC 25923 after 18 hrs in presence of KCl by CLSI based broth microdilution method (reference value: 64 microM); type: functional; conditions: ATCC 25923, 18 h
# [35] = system: Staphylococcus aureus; assay: Antibacterial activity against Staphylococcus aureus ATCC 25923 after 18 hrs in presence of NaCl by CLSI based broth microdilution method (reference value: 64 microM); type: functional; conditions: ATCC 25923, 18 h
# [36] = Cytotoxicity against mouse RAW264.7 cells assessed as cell proliferation at 32 uM after 1 hr by MTT assay relative to control; type: cell-based; conditions: read-out: Activity
smiles,measurement,setting,value
CCCC(=O)NC(Cc1cn(CCCC[C@H](NC(C)=O)C(=O)NCC(=O)N[C@@H](CC(C)C)C(=O)N[C@@H](CC(C)C)C(=O)N[C@H](CCCCN)C(=O)N[C@@H](CCCNC(=N)N)C(=O)N[C@H](C(=O)N[C@H](CCCCN)C(=O)N[C@H](C(=O)N[C@@H](CC(C)C)C(=O)N[C@@H](CC(C)C)C(N)=O)[C@@H](C)O)[C@@H](C)CC)nn1)C(=O)NCC(=O)N[C@@H](CC(C)C)C(=O)N[C@@H](CC(C)C)C(=O)N[C@H](CCCCN)C(=O)N[C@@H](CCCNC(=N)N)C(=O)N[C@H](C(=O)N[C@H](CCCCN)C(=O)N[C@H](C(=O)N[C@@H](CC(C)C)C(=O)N[C@@H](CC(C)C)C(N)=O)[C@@H](C)O)[C@@H](C)CC (stereo partly specified),MIC,[1],> 128 µM
same,Activity,[2],inactive
same,MIC,[3],128 µM
same,MIC,[4],> 128 µM
CCCCCCCCCCCC(=O)NCC(=O)N[C@@H](CC(C)C)C(=O)N[C@@H](CC(C)C)C(=O)N[C@H](CCCCN)C(=O)N[C@@H](CCCNC(=N)N)C(=O)N[C@H](C(=O)N[C@H](CCCCN)C(=O)N[C@H](C(=O)N[C@@H](CC(C)C)C(=O)N[C@@H](CC(C)C)C(N)=O)[C@@H](C)O)[C@@H](C)CC,MIC,[5],8 µM
same,MIC,[6],4 µM
same,MIC,[7],8 µM
same,"viability at 1 h, 8 µM",[8],< 80%
same,MIC,[9],4 µM
CCCCCCCC(=O)NCC(=O)N[C@@H](CC(C)C)C(=O)N[C@@H](CC(C)C)C(=O)N[C@H](CCCCN)C(=O)N[C@@H](CCCNC(=N)N)C(=O)N[C@H](C(=O)N[C@H](CCCCN)C(=O)N[C@H](C(=O)N[C@@H](CC(C)C)C(=O)N[C@@H](CC(C)C)C(N)=O)[C@@H](C)O)[C@@H](C)CC,Activity,[10],Active
same,MIC,[11],32 µM
same,MIC,[12],128 µM
same,MIC,[13],64 µM
same,MIC,[14],64 µM
same,MIC,[15],64 µM
same,Activity,[16],Active
same,MIC,[17],64 µM
same,MIC,[18],32 µM
CCCCCCCCCCCC(=O)NC(Cc1cn(CCCC[C@H](NC(C)=O)C(=O)NCC(=O)N[C@@H](CC(C)C)C(=O)N[C@@H](CC(C)C)C(=O)N[C@H](CCCCN)C(=O)N[C@@H](CCCNC(=N)N)C(=O)N[C@H](C(=O)N[C@H](CCCCN)C(=O)N[C@H](C(=O)N[C@@H](CC(C)C)C(=O)N[C@@H](CC(C)C)C(N)=O)[C@@H](C)O)[C@@H](C)CC)nn1)C(=O)NCC(=O)N[C@@H](CC(C)C)C(=O)N[C@@H](CC(C)C)C(=O)N[C@H](CCCCN)C(=O)N[C@@H](CCCNC(=N)N)C(=O)N[C@H](C(=O)N[C@H](CCCCN)C(=O)N[C@H](C(=O)N[C@@H](CC(C)C)C(=O)N[C@@H](CC(C)C)C(N)=O)[C@@H](C)O)[C@@H](C)CC (stereo partly specified),Activity,[19],Dose-dependent effect
same,Activity,[20],Active
CCCCCCCCCC(=O)NCC(=O)N[C@@H](CC(C)C)C(=O)N[C@@H](CC(C)C)C(=O)N[C@H](CCCCN)C(=O)N[C@@H](CCCNC(=N)N)C(=O)N[C@H](C(=O)N[C@H](CCCCN)C(=O)N[C@H](C(=O)N[C@@H](CC(C)C)C(=O)N[C@@H](CC(C)C)C(N)=O)[C@@H](C)O)[C@@H](C)CC,inhibition,[21],Active
CCCCCCCC(=O)NC(Cc1cn(CCCC[C@H](NC(C)=O)C(=O)NCC(=O)N[C@@H](CC(C)C)C(=O)N[C@@H](CC(C)C)C(=O)N[C@H](CCCCN)C(=O)N[C@@H](CCCNC(=N)N)C(=O)N[C@H](C(=O)N[C@H](CCCCN)C(=O)N[C@H](C(=O)N[C@@H](CC(C)C)C(=O)N[C@@H](CC(C)C)C(N)=O)[C@@H](C)O)[C@@H](C)CC)nn1)C(=O)NCC(=O)N[C@@H](CC(C)C)C(=O)N[C@@H](CC(C)C)C(=O)N[C@H](CCCCN)C(=O)N[C@@H](CCCNC(=N)N)C(=O)N[C@H](C(=O)N[C@H](CCCCN)C(=O)N[C@H](C(=O)N[C@@H](CC(C)C)C(=O)N[C@@H](CC(C)C)C(N)=O)[C@@H](C)O)[C@@H](C)CC (stereo partly specified),MIC,[22],16 µM
same,MIC,[23],32 µM
same,MIC,[24],4 µM
same,MIC,[25],8 µM
same,MIC,[26],16 µM
same,MIC,[27],16 µM
same,Activity,[28],Toxic
same,MIC,[29],16 µM
same,MIC,[30],8 µM
same,MIC,[31],8 µM
CCCCCC(=O)NC(Cc1cn(CCCC[C@H](NC(C)=O)C(=O)NCC(=O)N[C@@H](CC(C)C)C(=O)N[C@@H](CC(C)C)C(=O)N[C@H](CCCCN)C(=O)N[C@@H](CCCNC(=N)N)C(=O)N[C@H](C(=O)N[C@H](CCCCN)C(=O)N[C@H](C(=O)N[C@@H](CC(C)C)C(=O)N[C@@H](CC(C)C)C(N)=O)[C@@H](C)O)[C@@H](C)CC)nn1)C(=O)NCC(=O)N[C@@H](CC(C)C)C(=O)N[C@@H](CC(C)C)C(=O)N[C@H](CCCCN)C(=O)N[C@@H](CCCNC(=N)N)C(=O)N[C@H](C(=O)N[C@H](CCCCN)C(=O)N[C@H](C(=O)N[C@@H](CC(C)C)C(=O)N[C@@H](CC(C)C)C(N)=O)[C@@H](C)O)[C@@H](C)CC (stereo partly specified),Activity,[32],Active
same,MIC,[33],64 µM
same,MIC,[34],64 µM
same,MIC,[35],128 µM
same,"viability at 1 h, 32 µM",[36],> 80%

# Source: ChEMBL document CHEMBL4359906, “Design and synthesis of new N-terminal fatty acid modified-antimicrobial peptide analogues with potent in vitro biological activity” (Eur J Med Chem, 2019)
